Test [1] has as its system amyloid (senile plaque) in human Alzheimer disease brain sections. The experiment in a line: Specific binding to amyloid in Alzheimer disease brain sections (fluorescence microscopy). Particulars: 50 μM in TBS, formalin-fixed human Alzheimer disease brain sections, fluorescence microscope. The procedure:
Specific Binding to Amyloid
The compound of Example 21 having fluorescence was dissolved in TBS at a concentration of 50 μM and incubated with formalin-fixed human Alzheimer disease brain sections (purchased from BioChain). Thereafter, the sections were washed with saturated lithium carbonate/40% ethanol, dried and then observed under a fluorescence microscope.
Thus, it was shown that the compound of the present invention can specifically bind to amyloid in the Alzheimer brain.

The target of test [2] is T1, amyloid β-protein (human, 1-40) (Homo sapiens, UniProt P05067). Put plainly: Effect of drugs on the amyloid formation of amyloid β-protein (Thioflavine T method). Particulars: read-out: IC50 value (50% inhibition concentration of amyloid formation). Format: biochemical. The procedure: Thereafter, the quantity of amyloid formation was measured by the Thioflavine T method (Naiki et al., Lab Invest, 65, 104-110, 1991). The measured value was converted to a relative value (%) based on the quantity of amyloid formation in the drug-non-added control group, and then 50% inhibition concentration (IC50 value) of amyloid formation was calculated.
T1 sequence (P05067 18-40): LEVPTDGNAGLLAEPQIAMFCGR

In test [3] the target is T1, amyloid β-protein (human, 1-40). Put plainly: Effect on amyloid formation of various amyloid forming proteins (Thioflavine T method): Aβ1-40. Format: biochemical. Particulars: Aβ1-40 10 μM, PBS(−), room temperature, sampled next day; read-out: IC50 (50% inhibition concentration of amyloid formation), Aβ1-40.
The target in test [4] is Amyloid β-protein (human, 1-42) (Homo sapiens, UniProt P05067). The experiment in a line: Effect on amyloid formation of various amyloid forming proteins (Thioflavine T method): Aβ1-42. Format: biochemical. Particulars: Aβ1-42 10 μM, PBS(−), room temperature, sampled next day; read-out: IC50 (50% inhibition concentration of amyloid formation), Aβ1-42.
Sequence of Amyloid β-protein (human, 1-42) (P05067 18-42): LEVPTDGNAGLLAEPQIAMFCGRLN
For a further test, the target named is T2, Amyrin (Homo sapiens, UniProt P10997).
T2 construct: Amyrin (10 μM; purchased from Bachem), as an amyloid forming protein; purchased Bachem
T2 sequence (P10997 34-70 limits assumed): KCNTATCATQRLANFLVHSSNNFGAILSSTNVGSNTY
The experiment in a line: Effect on amyloid formation of various amyloid forming proteins (Thioflavine T method): Amyrin. Format: biochemical. Particulars: Amyrin 10 μM, PBS(−), room temperature, sampled next day; read-out: IC50 (50% inhibition concentration of amyloid formation), Amyrin.

Test [5] addresses partial fragment of prion protein (PrP 118-135) (Homo sapiens, UniProt P04156). The experiment in a line: biochemical.
Where [6] appears, read: 15 μM amyloid β-protein (human, 1-40), PBS(−), room temperature, 1 day, drug 1.6, 8 or 40 μM.

`Cc1ccc2nc(-c3ccc(N/N=C/c4ccncc4)cc3)sc2c1` [Example 21, 4-Pyridinecarboxyaldehyde 4-(6-methylbenzothiazol-2-yl)phenylhydrazone]: the “Fluorescence binding to amyloid in brain sections” value in test [1] was “accumulation of fluorescence was found in the senile plaque”.

Take `C(=NNc1ccc(-c2cnco2)cc1)c1ccncc1` [Example 3, 4-Pyridinecarboxyaldehyde 4-(oxazol-5-yl)phenylhydrazone]: the IC50 was found to be 2940 nM in test [2] (setting [6]); 1160 nM in test [3]; 700 nM in test [4]; 2080 nM at Amyrin; 1970 nM in test [5].

Consider `Nc1c(/N=N/c2ccc(-c3ccc(/N=N/c4cc(S(=O)(=O)O)c5ccccc5c4N)cc3)cc2)cc(S(=O)(=O)O)c2ccccc12` [Congo Red, Congo red, reference compound], for which, in test [2] (setting [6]), the IC50 was 870 nM.

`CC(=C(C#N)C#N)c1ccc2cc(N(C)C)ccc2c1` [DDNP]: the IC50 in test [2] was found to be 3230 nM.

Source of the values: patent US20060276433A1, “Hydrazone derivative” (priority 2003, published 2006).
